Usually IC50 stands for the concentration at which inhibition is half-maximal. A high value points to a need for much substance.

The experiment addresses T1, human IBAT (Homo sapiens, UniProt Q12908).
T1 construct: expressed in transfected cells; host or cells: Cos 7
T1 sequence (Q12908 1-348): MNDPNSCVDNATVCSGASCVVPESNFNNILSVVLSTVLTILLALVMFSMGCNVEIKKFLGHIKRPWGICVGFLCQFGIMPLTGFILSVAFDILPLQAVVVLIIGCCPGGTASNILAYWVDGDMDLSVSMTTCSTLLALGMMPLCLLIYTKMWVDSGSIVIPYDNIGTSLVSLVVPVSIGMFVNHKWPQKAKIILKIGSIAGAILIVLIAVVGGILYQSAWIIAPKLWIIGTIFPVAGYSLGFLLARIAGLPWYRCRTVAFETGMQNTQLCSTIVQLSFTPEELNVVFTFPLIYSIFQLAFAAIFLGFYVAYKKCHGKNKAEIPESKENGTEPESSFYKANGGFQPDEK
Briefly: In vitro assay of temporarily expressed human IBAT transporter using Cos 7 cells (Test Example 8). Particulars: Cos 7 cells temporarily expressing human IBAT; [3H] taurocholate 8 μM, 37° C., 60 minutes. In kind it is cell-based. As to the method:
In Vitro Assay of Compounds Which Inhibit Temporarily Expressed Human IBAT Transporter or Rat IBAT Transporter Using Cos 7 Cells
In this test example, the in vitro assay of the compounds which inhibit temporarily expressed human IBAT transporter or rat IBAT transporter using Cos cells was carried out according to the method described in Am. J. Physiol., 274, G157-169.
That is, […] Cos 7 were inoculated on a 24-well cell plate. One day later, 0.3 μg per well of cDNA of a human IBAT or a rat IBAT was transfected by using FuGENE6 (manufactured by ROCHE PHARMACEUTICAL CO., LTD.). For the assay, the cells cultured for one day after the transfection were used and the following procedure was followed. The cells were washed once with an assay buffer, Hank's buffer solution containing 25 mM glucose and with 10 mM HEPES (pH 7.4), and then the assay buffer was replaced by an assay buffer to which the test compound was added. After adding [^3H] taurocholate to a final concentration of 8 μM, the cells were incubated at 37° C. for 60 minutes. [^3H] taurocholate was allowed to be incorporated in Cos 7 cells through human IBAT or rat IBAT. The reaction was stopped by washing twice with a buffer prepared by adding 1 mM taurocholate to the assay buffer and lyzing the cells with 0.2M NaOH. Measurement of radioactivity was carried out by introducing the cell lyzate in 4 ml of liquid scintillation cocktail, stirring the mixture well, and then measuring the radioactivity by a scintillation counter.
Take `CCCCC1(CCCC)CS(=O)(=O)c2ccc(N(C)C)cc2C(c2cccc(NC(=S)NCCCCC[N+]34CCC(CC3)CC4)c2)N1` (stereo not drawn) [Example 1433]: the IC50 is 103 nM.

`CCCCC1(CCCC)CS(=O)(=O)c2ccc(N(C)C)cc2C(c2cccc(NC(=S)NCCCCCC[N+](C)(C)Cc3ccccc3)c2)N1` (stereo not drawn) [Example 1555] came in with an IC50 of 153 nM.

`CCCCC1(CCCC)CS(=O)(=O)c2ccc(N(C)C)cc2C(c2cccc(NC(=S)NCCCCCC[N+]34CCC(CC3)CC4)c2)N1` (stereo not drawn) [Example 1810] registered an IC50 of 167 nM.

`CCCCCC[N+](C)(C)Cc1ccc(NC(=S)Nc2cccc(C3NC(CCCC)(CCCC)CS(=O)(=O)c4ccc(N(C)C)cc43)c2)cc1` (stereo not drawn) [Example 3410] displayed an IC50 of 68 nM.

For `CCCCCCCC[N+](C)(C)Cc1ccc(NC(=S)Nc2cccc(C3NC(CCCC)(CCCC)CS(=O)(=O)c4ccc(N(C)C)cc43)c2)cc1` (stereo not drawn) [Example 3412], it took 75 nM to reach half-maximal inhibition (IC50).

In turn, `CCCCCCCCC[N+](C)(C)Cc1ccc(NC(=S)Nc2cccc(C3NC(CCCC)(CCCC)CS(=O)(=O)c4ccc(N(C)C)cc43)c2)cc1` (stereo not drawn) [Example 3413] returned an IC50 of 73 nM.

`CCCCCCCCCC[N+](C)(C)Cc1ccc(NC(=S)Nc2cccc(C3NC(CCCC)(CCCC)CS(=O)(=O)c4ccc(N(C)C)cc43)c2)cc1` (stereo not drawn) [Example 3414]: the IC50 came out at 88 nM.

The compound `CCCCC1(CCCC)CS(=O)(=O)c2ccc(N(C)C)cc2C(c2cccc(NC(=S)Nc3ccc(C[N+](C)(CCC)CCC)cc3)c2)N1` (stereo not drawn) [Example 3426] gave an IC50 of 58 nM.

In turn, `C=CC[N+](C)(C)Cc1ccc(NC(=S)Nc2cccc(C3NC(CCCC)(CCCC)CS(=O)(=O)c4ccc(N(C)C)cc43)c2)cc1` (stereo not drawn) [Example 3429] displayed an IC50 of 55 nM.

Compound `C#CC[N+](C)(C)Cc1ccc(NC(=S)Nc2cccc(C3NC(CCCC)(CCCC)CS(=O)(=O)c4ccc(N(C)C)cc43)c2)cc1` (stereo not drawn) [Example 3433] returned an IC50 of 55 nM.

Compound `CCC#CC[N+](C)(C)Cc1ccc(NC(=S)Nc2cccc(C3NC(CCCC)(CCCC)CS(=O)(=O)c4ccc(N(C)C)cc43)c2)cc1` (stereo not drawn) [Example 3434] came in with an IC50 of 71 nM.

`CCCCC1(CCCC)CS(=O)(=O)c2ccc(N(C)C)cc2C(c2cccc(NC(=S)Nc3ccc(C[N+](C)(C)C(C)c4ccccc4)cc3)c2)N1` (stereo not drawn) [Example 3441]: the half-maximal inhibitory concentration (IC50) was 85 nM.

`CCCCC1(CCCC)CS(=O)(=O)c2ccc(N(C)C)cc2C(c2cccc(NC(=S)Nc3ccc(C[N+](C)(C)Cc4cccs4)cc3)c2)N1` (stereo not drawn) [Example 3449] came in with an IC50 of 55 nM.

For the compound `CCCCC1(CCCC)CS(=O)(=O)c2ccc(N(C)C)cc2C(c2cccc(NC(=S)Nc3ccc(C[N+](C)(C)CC(C)O)cc3)c2)N1` (stereo not drawn) [Example 3454], the IC50 came out at 68 nM.

`CCCCC1(CCCC)CS(=O)(=O)c2ccc(N(C)C)cc2C(c2cccc(NC(=S)Nc3ccc(C[N+](C)(C)CCOC(=O)c4ccccc4)cc3)c2)N1` (stereo not drawn) [Example 3558] came in with an IC50 of 70 nM.

The compound `CCCCC1(CCCC)CS(=O)(=O)c2ccc(N(C)C)cc2C(c2cccc(NC(=S)Nc3ccc(C[N+]4(CC)CCCC4)cc3)c2)N1` (stereo not drawn) [Example 3568] yielded a half-inhibitory concentration (IC50) of 94 nM.

For `CCCCC1(CCCC)CS(=O)(=O)c2ccc(N(C)C)cc2C(c2cccc(NC(=S)Nc3ccc(C[N+]4(C)CCCCC4)cc3)c2)N1` (stereo not drawn) [Example 3587], half-maximal inhibition (IC50) required 70 nM.

Compound `CCCCC1(CCCC)CS(=O)(=O)c2ccc(N(C)C)cc2C(c2cccc(NC(=S)Nc3ccc(C[N+]4(Cc5ccccc5)CCCCC4)cc3)c2)N1` (stereo not drawn) [Example 3593] yielded an IC50 of 70 nM.

`CCCCC1(CCCC)CS(=O)(=O)c2ccc(N(C)C)cc2C(c2cccc(NC(=S)Nc3ccc(C[N+]4(C)CCC(O)CC4)cc3)c2)N1` (stereo not drawn) [Example 3599] showed an IC50 of 54 nM.

`CCCCC1(CCCC)CS(=O)(=O)c2ccc(N(C)C)cc2C(c2cccc(NC(=S)Nc3ccc(C[N+]4(Cc5ccccc5)CCCC(O)C4)cc3)c2)N1` (stereo not drawn) [Example 3604] displayed an IC50 of 45 nM.

In turn, `CCCCC1(CCCC)CS(=O)(=O)c2ccc(N(C)C)cc2C(c2cccc(NC(=S)Nc3ccc(C[N+]45CCC(CC4)C(O)C5)cc3)c2)N1` (stereo not drawn) [Example 3697] had an IC50 of 69 nM.
